Data from ChEMBL document CHEMBL5321295, “Targeted Degradation of Alpha-Synuclein by Autophagosome-Anchoring Chimera Peptides” (J Med Chem, 2023).
Calls of active or inactive are those of the source. No cut-off for these calls is given here.

Key:
Alpha-synuclein [1] = molecular target: T1, Alpha-synuclein (Homo sapiens, UniProt P37840); experiment: Induction of alpha-synuclein (unknown origin) degradation overexpressed in HEK293T cells with LC3B knockdown at 50 uM incubated for 24 hrs by immunoblot analysis; assay type: cell-based
Mus musculus [2] = experiment: Neuroprotective activity in MPTP-induced cognitive impairment in C57BL/6 mouse assessed as increase in distance travelled in target quadrant in probe trial phase at 50 mg/kg/day, iv treated for 5 days measured after 5 to 8 days days by morris water maze test; assay type: functional, organism-based; details: time 10-13 day
[3] = Toxicity in C57BL/6 mouse assessed as dyspnea at 50 to 200 mg/kg/day treated for 5 days; assay type: organism-based; details: in vivo, 120 h, dose 50-200 mg/kg/day, time 5 day
SH-SY5Y [4] = experiment: Cytoprotective activity in human SH-SY5Y cells transfected with alpha-synuclein (unknown origin) assessed as cell viability at 50 uM by CCK8 assay relative to control; assay type: functional; details: read-out: Activity
HEK-293T [5] = experiment: Downregulation of BANF1 expression in HEK293T cells at 100 uM incubated for 24 hrs by proteomic profiling analysis; assay type: functional, cell-based; details: Homo sapiens
Alpha-synuclein [6] = molecular target: T1, Alpha-synuclein; experiment: Binding affinity to alpha-synuclein (unknown origin) overexpressed in HEK293T cells assessed as shift in denaturation at 50 uM incubated for 4 hrs followed by heating at 40 to 75 degreeC for 3 mins by CETSA assay; assay type: cell-based; details: time 243.0 min
SH-SY5Y [7] = experiment: Cytoprotective activity in human SH-SY5Y cells transfected with alpha-synuclein (unknown origin) assessed as cell viability at 25 uM by CCK8 assay relative to control; assay type: functional; details: read-out: Activity
HEK-293T [8] = experiment: Cytotoxicity against wild-type HEK293T cells assessed as cell viability upto 200 uM incubated for 24 hrs by CCK8 assay; assay type: toxicity, cell-based; details: human
Alpha-synuclein [9] = molecular target: T1, Alpha-synuclein; experiment: Binding affinity to alpha-synuclein (unknown origin) overexpressed in HEK293T cells at 50 to 100 uM incubated for 4 hrs by co-IP assay; assay type: cell-based; details: dose 50-100 µM
HEK-293T [10] = experiment: Downregulation of THOP1 expression in HEK293T cells at 100 uM incubated for 24 hrs by proteomic profiling analysis; assay type: functional, cell-based; details: Homo sapiens
[11] = Drug localization in HEK293T cells overexpressing mCherry-fused alpha-synuclein (unknown origin) assessed as puncta formation of alpha-synuclein at 50 uM incubated for 2 hrs by MDC staining based confocal laser scanning microscopy; assay type: ADME, cell-based; details: human, hek-293t
Mus musculus [12] = experiment: Downregulation of phosphorylated alpha-synuclein at S129 residue level in substantia nigra pars compacta of MPTP-treated C57BL/6 mouse at 50 mg/kg/day, iv treated for 5 days by dot blot analysis; assay type: functional, organism-based; details: time 5.0 day
Mus musculus [13] = experiment: Neuroprotective activity in MPTP-treated C57BL/6 mouse assessed as neuron viability in substantia nigra pars compacta at 50 mg/kg/day, iv treated for 5 days by Nissl staining based microscopy; assay type: functional, organism-based; details: time 5.0 day
[14] = Drug localization in HEK293T cells overexpressing mCherry-fused alpha-synuclein (unknown origin) assessed as colocalization of lysosomes at 50 uM incubated for 2 hrs by LyTG staining based confocal laser scanning microscopy; assay type: ADME, cell-based; details: human, hek-293t
HEK-293T [15] = experiment: Downregulation of NME1 expression in HEK293T cells at 100 uM incubated for 24 hrs by proteomic profiling analysis; assay type: functional, cell-based; details: Homo sapiens
[16] = Drug localization in HEK293T cells overexpressing mCherry-fused alpha-synuclein (unknown origin) assessed as colocalization of autophagosomes at 50 uM incubated for 2 hrs by MDC staining based confocal laser scanning microscopy; assay type: ADME, cell-based; details: human, hek-293t
Alpha-synuclein [17] = molecular target: T1, Alpha-synuclein; experiment: Induction of alpha-synuclein (unknown origin) degradation overexpressed in HEK293T cells at 50 uM incubated for 24 hrs in presence of Rapamycin by immunoblot analysis; assay type: cell-based
Alpha-synuclein [18] = molecular target: T1, Alpha-synuclein; experiment: Induction of alpha-synuclein (unknown origin) degradation overexpressed in HEK293T cells infected with adenovirus expressing mCherry-EGFP-LC3B incubated for 24 hrs by immunoblot analysis; assay type: cell-based
SH-SY5Y [19] = experiment: Cytoprotective activity in human SH-SY5Y cells transfected with alpha-synuclein (unknown origin) assessed as necrotic cells at 100 uM measured after 24 hrs by […] based flow cytometry (reference value: 14.8 %); assay type: functional
SH-SY5Y [20] = experiment: Cytoprotective activity in human SH-SY5Y cells transfected with alpha-synuclein (unknown origin) assessed as late apoptotic cells at 100 uM measured after 24 hrs by […] based flow cytometry (reference value: 56.6 %); assay type: functional
[21] = Toxicity in C57BL/6 mouse assessed as change in uric acid level at 50 to 200 mg/kg/day treated for 5 days; assay type: organism-based; details: in vivo, 120 h, dose 50-200 mg/kg/day, time 5 day
Mus musculus [22] = experiment: Neuroprotective activity in MPTP-induced cognitive impairment in C57BL/6 mouse assessed as decrease in total distance travelled in navigation trial phase at 50 mg/kg/day, iv treated for 5 days measured after 5 to 8 days days by morris water maze test; assay type: functional, organism-based; details: time 10-13 day
SH-SY5Y [23] = experiment: Cytoprotective activity in human SH-SY5Y cells assessed as decrease in CCCP-induced ROS level at 100 uM measured after 24 hrs by DCFH-DA staining based confocal laser scanning microscopy; assay type: functional, cell-based
[24] = Toxicity in C57BL/6 mouse assessed as change in LDH1 level at 50 to 200 mg/kg/day treated for 5 days; assay type: organism-based; details: in vivo, 120 h, dose 50-200 mg/kg/day, time 5 day
[25] = molecular target: Microtubule-associated protein 1 light chain 3 beta (Homo sapiens, UniProt Q9GZQ8); experiment: Induction of LC3B-mediated autophagy flux in HEK293T cells overexpressing alpha-synuclein (unknown origin) cotransfected with adenovirus-packaged plasmid encoding mCherry-EGFP-fused LC3B assessed as increase in number of autolysosomes incubated for 4 hrs by confocal laser scanning microscopy; assay type: cell-based; details: dose <= 100.0 µM
Alpha-synuclein [26] = molecular target: T1, Alpha-synuclein; experiment: Induction of EGFP-fused alpha-synuclein (unknown origin) degradation overexpressed in HEK293T cells assessed as colocalization of alpha-synuclein with mCherry-fused LC3B at 50 uM incubated for 2 hrs by confocal laser scanning microscopy; assay type: cell-based
SH-SY5Y [27] = experiment: Cytotoxicity against wild-type human SH-SY5Y cells assessed as cell viability upto 200 uM incubated for 24 hrs by CCK8 assay; assay type: functional, cell-based
[28] = Toxicity in C57BL/6 mouse assessed as depression in ST segment of cardiac electrophysiology at 200 mg/kg/day treated for 5 days by ECG analysis; assay type: organism-based; details: in vivo, 120 h, time 5 day
Mus musculus [29] = experiment: Downregulation of phosphorylated alpha-synuclein at S129 residue level in substantia nigra pars compacta of MPTP-treated C57BL/6 mouse at 50 mg/kg/day, iv treated for 5 days by immunoblot analysis; assay type: functional, organism-based; details: time 5.0 day
[30] = Toxicity in C57BL/6 mouse assessed as ataxia at 50 to 200 mg/kg/day treated for 5 days; assay type: organism-based; details: in vivo, 120 h, dose 50-200 mg/kg/day, time 5 day
[31] = Toxicity in C57BL/6 mouse assessed as body weight loss at 50 to 200 mg/kg/day treated for 5 days; assay type: organism-based; details: in vivo, 120 h, dose 50-200 mg/kg/day, time 5 day

In the case of `CC(C)C[C@H](NC(=O)[C@H](Cc1c[nH]cn1)NC(=O)[C@@H](NC(=O)[C@H](Cc1c[nH]c2ccccc12)NC(=O)[C@H](CC(=O)O)NC(=O)[C@H](CC(=O)O)NC(=O)[C@H](CC(=O)O)NC(=O)CNC(=O)CNC(=O)[C@H](CO)NC(=O)[C@H](CO)NC(=O)CNC(=O)[C@H](CO)NC(=O)CNC(=O)[C@H](CCCNC(=N)N)NC(=O)[C@@H](NC(=O)[C@H](CCCCN)NC(=O)[C@H](CO)NC(=O)CNC(=O)[C@@H](NC(=O)[C@H](Cc1ccc(O)cc1)NC(=O)[C@H](CC(C)C)NC(=O)[C@@H](NC(=O)CN)C(C)C)C(C)C)[C@H](C)O)[C@@H](C)O)C(=O)N[C@@H](CO)C(=O)N[C@@H](CO)C(=O)N[C@@H](Cc1ccc(O)cc1)C(=O)NCC(=O)N[C@@H](CCCNC(=N)N)C(=O)N[C@@H](CCCCN)C(=O)N[C@@H](CCCCN)C(=O)N[C@@H](CCCNC(=N)N)C(=O)N[C@@H](CCCNC(=N)N)C(=O)N[C@@H](CCC(N)=O)C(=O)N[C@@H](CCCNC(=N)N)C(=O)N[C@@H](CCCNC(=N)N)C(=O)N[C@@H](CCCNC(=N)N)C(=O)O`, the Activity (Alpha-synuclein [1]) was “Active”, the Activity (Mus musculus [2]) was “Active” and the Activity [3] was “Non-Toxic”. The viability at 50 µM (SH-SY5Y [4]) was 91.8%, the Activity (HEK-293T [5]) was “Active” and the Activity (Alpha-synuclein [6]) was “Active”. The viability at 25 µM (SH-SY5Y [7]) was 85.6%, the Activity (HEK-293T [8]) was “Non-Toxic” and the Activity (Alpha-synuclein [9]) was “Active”. For the same molecule, the Activity (HEK-293T [10]) was “Active”, the Drug uptake [11] was “Active” and the Activity (Mus musculus [12]) was “Active”. The Activity (Mus musculus [13]) was “Active”, the Drug uptake [14] was “Active” and the Activity (HEK-293T [15]) was “Active”. For the same molecule, the Drug uptake [16] was “Active”, the Activity (Alpha-synuclein [17]) was “Active” and the DC50 (Alpha-synuclein [18]) was 46.8 µM. For the same molecule, the Activity (Alpha-synuclein [18]; dose <= 200.0 µM) was “Dose-Dependent Effect”, the Activity (SH-SY5Y [19]) was 4.07% and the Activity (SH-SY5Y [20]) was 79.7%. For the same molecule, the Activity [21] was “Non-Toxic”, the Activity (Mus musculus [22]) was “Active” and the Activity (SH-SY5Y [23]) was “inactive”. For the same molecule, the Activity [24] was “Non-Toxic”, the Activity [25] was “Dose-Dependent Effect” and the Activity (Alpha-synuclein [26]) was “Active”. The Activity (SH-SY5Y [27]) was “inactive”, the Activity [28] was “Toxic” and the Activity (Mus musculus [29]) was “Active”. For the same molecule, the Activity [30] was “Non-Toxic” and the Activity [31] was “Non-Toxic”.
